In brackets after ≈: the same amount, converted by molar mass.
What was measured:
[1] = AIBN forced degradation screen of antioxidants in lestaurtinib microemulsions; type: physicochemical; details: AIBN screening; for antioxidant effect against oxidation of lestaurtinib microemulsion: first experiment, thirteen formulations
Protocol: Various antioxidants were evaluated for their effectiveness in relation to the composition of the invention. In an initial experiment, capsules containing a lestaurtinib composition prepared according to the invention were placed on accelerated stability conditions. Several impurities were determined (LC-MS) to be related to the oxidation of lestaurtinib. Subsequently, a forced degradation experiment was performed using the radical initiator azoisobutyronitrile (AIBN) adapted for use with lestaurtinib. This was based on the fact that AIBN radical initiates the autoxidation mechanism that the majority of active ingredients follow for oxidation.
Using AIBN as a screening tool, a series of microemulsions prepared in accordance with the invention were formulated using different antioxidants to identify suitable solutions for preventing degradation of the composition. The first experiment used thirteen formulations using several classes of antioxidants (i.e., oxygen scavengers, sacrificial antioxidants and H-atom donors) to determine which reaction pathway was critical for disrupting the oxidation process. From this first experiment, several antioxidants were identified as efficacious: ascorbic acid, vitamin E, BHA and BHT.
A second experiment was then performed based on the information obtained from the first experiment. The second experiment evaluated combinations of antioxidants from different classes, different isomers of the same antioxidants, and mixtures of water-soluble and oil-soluble antioxidants.

[2] = Solubilized concentration of lestaurtinib in microemulsion formed with added water
Protocol: In one embodiment, microemulsions containing solubilized indolocarbazole compounds, e.g., lestaurtinib, can be prepared using the hydrophilic component and water in the excipient composition but without the presence of the surfactant, e.g., MYRJ®. In one example, a composition without surfactant was prepared as follows. Lestaurtinib 120 mg was weighed into a glass vial and 2 mL of molten PEG-1450 was added.

[3] = Maximum solubility of lestaurtinib in prior solid state solution / SEDDS formulations; details: vehicle 25% PEG 400, 25% PEG 1000, 50% MYRJ 52, no added water
Description: This formulation was a self-emulsifying drug delivery system (SEDDS) comprised of a blend of polyoxyethylene glycols (PEGs) and MYRJ® 52 (polyoxyethylene 40 stearate surfactant available from Croda N.A., Parsippany, N.J.).

[4] = Water solubility of lestaurtinib; type: physicochemical; details: at 22° C.
[5] = microemulsion with water addition

## COc1ccc(O)c(C(C)(C)C)c1 [BHA, butylhydroxyanisole]
[1]
  antioxidant effect against oxidation of lestaurtinib microemulsion: efficacious

## O=C1O[C@H]([C@@H](O)CO)C(O)=C1O [ascorbic acid]
[1]
  antioxidant effect against oxidation of lestaurtinib microemulsion: efficacious

## C[C@]12O[C@H](C[C@]1(O)CO)n1c3ccccc3c3c4c(c5c6ccccc6n2c5c31)CNC4=O [lestaurtinib, [9S-(9α,10β,12α)]-2,3,9,10,11,12-hexahydro-10-hydroxy-10-(hydroxymethyl)-9-methyl-9,12-epoxy-1H-diindolo[1,2,3-fg:3′,2′,1′-kl]pyrrolo[3,4-i][1,6]benzodiazocin-1-one]
[2]; Example 13, PEG-1450 and water, without surfactant, by HPLC
  final concentration of lestaurtinib in clear solution: 59.2 mg/mL
[2]; [5]
  solubilized concentration achieved using the invention: 87 mg/g
  solubilized concentration achieved using the invention (total composition weight): about 9%
[3]
  maximum solubility obtainable in SEDDS formulation: about 29 mg/g
[4]
  solubility: 1.7 µg/mL (≈ 3.87 µM)

## vitamin E
[1]
  antioxidant effect against oxidation of lestaurtinib microemulsion: efficacious

## O=S([O-])S(=O)(=O)[O-].[K+].[K+] [potassium metabisulfite]
[1]; second experiment
  effect on impurity levels in final formulation: decreased the overall impurity levels
